Laboratory results reported in ChEMBL document CHEMBL1143963, “2D QSAR and similarity studies on cruzain inhibitors aimed at improving selectivity over cathepsin L” (Bioorg Med Chem, 2008).

What follows are compounds tested against Cruzipain (Trypanosoma cruzi, UniProt P25779) (assay: Inhibition of Trypanosoma cruzi cruzain).
Cruzipain, sequence (P25779 whole entry): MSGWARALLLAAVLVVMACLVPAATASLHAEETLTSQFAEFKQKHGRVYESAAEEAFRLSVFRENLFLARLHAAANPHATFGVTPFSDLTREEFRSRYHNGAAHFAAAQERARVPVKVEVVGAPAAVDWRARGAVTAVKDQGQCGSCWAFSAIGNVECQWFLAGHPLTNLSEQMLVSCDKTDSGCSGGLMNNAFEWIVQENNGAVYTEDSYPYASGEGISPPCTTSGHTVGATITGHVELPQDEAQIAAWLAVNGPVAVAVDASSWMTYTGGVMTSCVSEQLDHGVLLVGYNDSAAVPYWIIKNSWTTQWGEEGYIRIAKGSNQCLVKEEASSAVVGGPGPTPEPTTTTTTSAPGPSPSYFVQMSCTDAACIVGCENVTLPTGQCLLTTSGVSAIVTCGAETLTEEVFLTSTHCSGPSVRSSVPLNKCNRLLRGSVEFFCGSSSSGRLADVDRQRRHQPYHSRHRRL

`O=C(O)C[C@H](CCc1ccccc1)NC(=O)[C@H](Cc1ccccc1)NC(=O)OCc1ccccc1` and `O=C(N[C@@H](Cc1ccccc1)C(=O)N[C@H](CCO)CCc1ccccc1)OCc1ccccc1` cannot be ordered by Ki: greater than 10000 nM for the first, greater than 10000 nM for the second.

Compared with `O=C(N[C@@H](Cc1ccccc1)C(=O)N[C@@H](Cc1ccccc1)C(=O)CO)OCc1ccccc1`, `O=C(N[C@@H](Cc1ccccc1)C(=O)N[C@@H](Cc1ccccc1)C(=O)CS)OCc1ccccc1` is 33-fold lower in Ki: 145 nM for the first, 4.37 nM for the second.

For `O=C(N[C@@H](Cc1ccccc1)C(=O)N[C@H](CCS)CCc1ccccc1)OCc1ccccc1`, the Ki was greater than 5010 nM.
